Results taken from patent US20080145858A1, “DETECTION AND IDENTIFICATION OF TOXICANTS BY MEASUREMENT OF GENE […]” (priority 2003, published 2008).

Test system: Xenopus laevis embryos (stage 8 and stage 15)
Assay: Verification of microarray analysis by RT-PCR with biotinylated primers
Type: in vivo
Conditions: for expression of genes of ESTs PBX0135A08 and PBX013409: microarray and RT-PCR in agreement
Text: Up-regulation of the clone Nos. PBX0135A08 and PBX0134E09 (underlined and shaded genes in Table 1, Panel A) were verified by RT-PCR of the genes. […] The DNA product obtained by RT-PCR using biotinylated primers of clone No. PBX0135A08 was separated by 1% agarose gel electophoresis and visualized by ethidium bromide staining (FIG. 3, Panel A). The DNA fragments were blotted to a nitrocellulose membrane and visualized by a streptavidin-horseradish peroxidase/ECL system (FIG. 3, Panel B). Though a single band for each reaction was visible in the ethidium bromide stained gel (FIG. 3, Panel A), multiple bands were obtained by the ECL system (FIG. 3, Panel B). When the biotin-labeled DNA in the gel was depurinated and denaturated by treatment with 0.25 M HCl followed by 1.5 M NaCl/0.56 N NaOH, the major 380 bp species were efficiently transferred and similar pattern to that observed using the ECL method was obtained (FIG. 3, Panel C). The effect was also observed with RT-PCR of clone No. PBX0134E09. mRNA levels of clones No. PBX0135A08 and No. PBX013409 increased after PMA treatment at stage 8 (Table 2).
In FIG. 3 the DNA products were obtained from 2 independent RT-PCR reactions using mRNA from untreated blastula stage 8 embryos (lanes 1 and 2), PMA-treated cleavage stage 8 embryos (lanes 3 and 4), untreated neurula stage 15 embryos (lanes 5 and 6), and PMA-treated neurula stage 15 embryos (lane 7 and 8). The 380 bp biotin-labeled DNA fragments were separated by gel electrophoresis on 1% agarose gel without further treatment (panel A and B) or following depurination and denaturation (panel C). In panel A, the DNA was detected by ultraviolet light following ethidium bromide staining. In panels B and C, the DNA was transferred to nitrocellulose membrane and detected by streptavidin-horseradish peroxidase ECL.

SMILES: CCCCCCCCCCCCCC(=O)O[C@@H]1[C@@H](C)[C@@]2(O)[C@@H](C=C(CO)C[C@]3(O)C(=O)C(C)=C[C@@H]23)[C@@H]2C(C)(C)[C@]12OC(C)=O [PMA, phorbol 12-myristate 12-acetate]
- expression of genes of ESTs PBX0135A08 and PBX013409 (cleavage embryos, stage 8): highly up-regulated
- expression of genes of ESTs PBX0135A08 and PBX013409 (embryos undergoing neurulation, stage 15): unaffected
- % increase of mRNA expression by RT-PCR (gene PBX0135A08, Stage 8): 260% of control
- % increase of mRNA expression by RT-PCR (gene PBX0135A08, Stage 15): no change
- % increase of mRNA expression by RT-PCR (gene PBX013409, Stage 8, not detected in control but strong band after PMA treatment): highly induced^b
- % increase of mRNA expression by RT-PCR (gene PBX013409, Stage 15): no change
